Results: patent US10590126B2, “Non-selective protease activated receptor 4 ALA120THR isoform antagonist” (THOMAS JEFFERSON UNIVERSITY, priority 2015, dated 2020)
“Also recorded” adds a separate entry of the source.

Tests used:
[1] = system: PAR4 Ala120 and Thr120 variants; experiment: PAR4-induced platelet activation, platelets of subjects of the 3 genotypes (FIG. 1); format: cell-based, human; details: subjects with and without the Thr120 variant (Ala/Ala, Ala/Thr, Thr/Thr)
Method: FIG. 1. Summary of results using all three PAR4 variants. […] Data are shown as the average of the percent of maximal activation, where maximal activation was the DMSO data.
[…] of mouse or PAC1 was added to each sample of platelets that contained compounds. 5 mL of compound was added to inhibitor samples. Tyrodes with 1% final concentration, DMSO were added to inhibitor samples with no controls. Each sample was incubated for two minutes. 5.5 mL of PAR4-AP was added to all samples except the no agonist control. Final concentrations of samples=[…]. Samples were gently mixed and sat at room temperature for 10 minutes. 50 mL of 2% paraformaldehyde was added to each sample and sat at room temperature for 10 minutes. 500 mL of Tyrodes were then added and samples were run of the C6 Accuri.

[2] = system: platelets expressing PAR4 Ala120; details: individuals expressing PAR4 Ala120; cited from earlier work
[3] = system: platelets expressing PAR4 Thr120; details: individuals expressing PAR4 Thr120; cited from earlier work

CNCc1c(-c2ccccc2)c2cc([N+](=O)[O-])ccc2n1C [VU0478944-1]
blockade of PAR4-induced platelet activation [1]: effectively blocked; also recorded: greatest effective blockade

CCCNCc1c(-c2ccccc2)c2cc([N+](=O)[O-])ccc2n1C [VU0478046-1]
blockade of PAR4-induced platelet activation [1]: effectively blocked
blockade of PAR4-induced platelet activation ([1]; listed as VU478046-1): greatest effective blockade

COC(=O)[C@H](c1ccccc1Cl)N1CCc2sccc2C1 [clopidogrel]
inhibiting platelet aggregation [2]: selective
inhibiting platelet aggregation [3]: not effective

Cn1c(CO)c(-c2ccccc2)c2cc([N+](=O)[O-])ccc21 [VU0099704-4]
blockade of PAR4-induced platelet activation [1]: effectively blocked; also recorded: greatest effective blockade
